Experimental data taken from the NIST ThermoML archive (doi:10.1016/j.fluid.2007.09.028).
Numbers after ± are expanded uncertainties.

Test: xn = mol fraction of the nth substance listed
Conditions: 101 kPa, Liquid

Clc1ccccc1 [chlorobenzene] + CC(C)(C)O
mass density [kg/m3]
Conditions	303.15 K	308.15 K	313.15 K	318.15 K	323.15 K
x2 = 0	1095.64 ± 0.28	1090.23 ± 0.27	1084.82 ± 0.26	1079.42 ± 0.25	1073.97 ± 0.24
x2 = 0.0514	1078.9 ± 0.26	1073.42 ± 0.25	1067.94 ± 0.24	1062.44 ± 0.23	1056.94 ± 0.23
x2 = 0.1001	1063.67 ± 0.23	1058.13 ± 0.23	1052.58 ± 0.22	1047.01 ± 0.21	1041.43 ± 0.2
x2 = 0.1498	1048.32 ± 0.21	1042.74 ± 0.2	1037.14 ± 0.2	1031.52 ± 0.19	1025.89 ± 0.18
x2 = 0.199	1033.1 ± 0.19	1027.51 ± 0.18	1021.89 ± 0.17	1016.24 ± 0.17	1010.56 ± 0.16
x2 = 0.2505	1017.18 ± 0.17	1011.59 ± 0.16	1005.96 ± 0.15	1000.3 ± 0.14	994.615 ± 0.15
x2 = 0.3	1001.8 ± 0.15	996.225 ± 0.15	990.603 ± 0.16	984.94 ± 0.17	979.276 ± 0.17
x2 = 0.351	985.908 ± 0.16	980.337 ± 0.17	974.721 ± 0.18	969.053 ± 0.19	963.346 ± 0.2
x2 = 0.3707	979.707 ± 0.17	974.152 ± 0.18	968.545 ± 0.19	962.885 ± 0.2	957.187 ± 0.21
x2 = 0.3997	970.62 ± 0.19	965.075 ± 0.2	959.477 ± 0.2	953.823 ± 0.21	948.132 ± 0.22
x2 = 0.45	954.724 ± 0.21	949.206 ± 0.22	943.631 ± 0.23	937.997 ± 0.24	932.311 ± 0.24
x2 = 0.5	938.79 ± 0.23	933.303 ± 0.24	927.755 ± 0.25	922.142 ± 0.26	916.464 ± 0.27
x2 = 0.5499	922.845 ± 0.26	917.39 ± 0.27	911.872 ± 0.28	906.286 ± 0.28	900.633 ± 0.29
x2 = 0.6003	906.668 ± 0.28	901.248 ± 0.29	895.76 ± 0.3	890.201 ± 0.31	884.578 ± 0.32
x2 = 0.6499	890.559 ± 0.31	885.172 ± 0.32	879.716 ± 0.33	874.189 ± 0.34	868.592 ± 0.34
x2 = 0.7002	874.261 ± 0.34	868.904 ± 0.34	863.477 ± 0.35	857.976 ± 0.36	852.408 ± 0.37
x2 = 0.7482	858.49 ± 0.36	853.167 ± 0.37	847.772 ± 0.38	842.3 ± 0.39	836.757 ± 0.39
x2 = 0.7998	841.567 ± 0.39	836.267 ± 0.4	830.896 ± 0.4	825.45 ± 0.41	819.931 ± 0.42
x2 = 0.8498	825.04 ± 0.41	819.768 ± 0.42	814.423 ± 0.43	809 ± 0.44	803.512 ± 0.45
x2 = 0.9004	808.338 ± 0.44	803.082 ± 0.45	797.754 ± 0.46	792.35 ± 0.46	786.87 ± 0.47

Clc1ccccc1 [chlorobenzene] + CCCCO
mass density [kg/m3]
Conditions	288.15 K	293.15 K	298.15 K	303.15 K	308.15 K	313.15 K
x2 = 0	1111.81 ± 0.3	1106.43 ± 0.29	1101.04 ± 0.28	1095.64 ± 0.28	1090.23 ± 0.27	1084.82 ± 0.26
x2 = 0.0491	1098.36 ± 0.29	1092.97 ± 0.28	1087.57 ± 0.27	1082.16 ± 0.26	1076.75 ± 0.25	1071.34 ± 0.25
x2 = 0.1013	1084.16 ± 0.27	1078.81 ± 0.26	1073.45 ± 0.25	1068.07 ± 0.24	1062.67 ± 0.23	–
x2 = 0.1492	1071.13 ± 0.25	1065.83 ± 0.24	1060.5 ± 0.23	1055.16 ± 0.22	1049.8 ± 0.21	1044.42 ± 0.2
x2 = 0.2004	1057.1 ± 0.23	1051.85 ± 0.22	1046.57 ± 0.21	1041.28 ± 0.2	1035.97 ± 0.2	1030.63 ± 0.19
x2 = 0.2501	1043.32 ± 0.21	1038.12 ± 0.2	1032.91 ± 0.19	1027.68 ± 0.18	1022.42 ± 0.18	1017.14 ± 0.17
x2 = 0.3	1029.41 ± 0.19	1024.28 ± 0.18	1019.13 ± 0.17	1013.96 ± 0.17	1008.76 ± 0.16	1003.55 ± 0.15
x2 = 0.3507	1015.11 ± 0.17	1010.04 ± 0.16	1004.96 ± 0.15	999.858 ± 0.15	994.721 ± 0.15	989.562 ± 0.16
x2 = 0.4	1001.06 ± 0.15	996.06 ± 0.15	991.039 ± 0.16	985.993 ± 0.17	980.92 ± 0.18	975.825 ± 0.18
x2 = 0.4502	986.537 ± 0.17	981.622 ± 0.18	976.686 ± 0.18	971.72 ± 0.19	966.72 ± 0.2	961.715 ± 0.21
x2 = 0.5	972.013 ± 0.19	967.172 ± 0.2	962.314 ± 0.21	957.429 ± 0.21	952.506 ± 0.22	947.561 ± 0.23
x2 = 0.5499	957.246 ± 0.22	952.491 ± 0.22	947.717 ± 0.23	942.914 ± 0.24	938.072 ± 0.24	933.199 ± 0.25
x2 = 0.5998	942.296 ± 0.24	937.639 ± 0.25	932.95 ± 0.26	928.23 ± 0.26	923.477 ± 0.27	918.689 ± 0.28
x2 = 0.6504	926.891 ± 0.27	922.329 ± 0.27	917.738 ± 0.28	913.116 ± 0.29	908.455 ± 0.29	903.772 ± 0.3
x2 = 0.7002	911.543 ± 0.29	907.078 ± 0.3	902.582 ± 0.31	898.054 ± 0.31	893.49 ± 0.32	888.906 ± 0.33
x2 = 0.749	896.297 ± 0.32	891.927 ± 0.32	887.529 ± 0.33	883.097 ± 0.34	878.634 ± 0.34	874.13 ± 0.35
x2 = 0.7995	880.209 ± 0.34	875.948 ± 0.35	871.658 ± 0.36	867.339 ± 0.36	862.977 ± 0.37	858.585 ± 0.38
x2 = 0.849	864.175 ± 0.37	860.018 ± 0.38	855.838 ± 0.38	851.632 ± 0.39	847.387 ± 0.4	843.125 ± 0.4
x2 = 0.9006	847.199 ± 0.4	843.162 ± 0.4	839.105 ± 0.41	835.018 ± 0.42	830.894 ± 0.42	826.737 ± 0.43
x2 = 0.9505	830.398 ± 0.43	826.483 ± 0.43	822.545 ± 0.44	818.578 ± 0.44	814.579 ± 0.45	810.547 ± 0.46

Clc1ccccc1 [chlorobenzene] + CCCCCO
mass density [kg/m3]
Conditions	288.15 K	293.15 K	298.15 K	303.15 K	308.15 K	313.15 K
x2 = 0	1111.81 ± 0.3	1106.43 ± 0.29	1101.04 ± 0.28	1095.64 ± 0.28	1090.23 ± 0.27	1084.82 ± 0.26
x2 = 0.0495	1096.2 ± 0.29	1090.85 ± 0.28	1085.48 ± 0.27	1080.11 ± 0.26	1074.71 ± 0.25	1069.32 ± 0.24
x2 = 0.1004	1080.5 ± 0.27	1075.21 ± 0.26	1069.9 ± 0.25	1064.57 ± 0.24	1059.22 ± 0.23	1053.86 ± 0.22
x2 = 0.1503	1065.26 ± 0.25	1060.04 ± 0.24	1054.8 ± 0.23	1049.54 ± 0.22	1044.25 ± 0.21	1038.95 ± 0.2
x2 = 0.2001	1050.21 ± 0.23	1045.07 ± 0.22	1039.9 ± 0.21	1034.71 ± 0.2	1029.5 ± 0.2	1024.27 ± 0.19
x2 = 0.2498	1035.28 ± 0.21	1030.21 ± 0.2	1025.13 ± 0.19	1020.02 ± 0.19	1014.88 ± 0.18	1009.72 ± 0.17
x2 = 0.2998	1020.4 ± 0.19	1015.41 ± 0.18	1010.4 ± 0.18	1005.37 ± 0.17	1000.32 ± 0.16	995.245 ± 0.17
x2 = 0.3497	1005.6 ± 0.18	1000.69 ± 0.17	995.77 ± 0.17	990.822 ± 0.18	985.847 ± 0.19	980.857 ± 0.2
x2 = 0.3992	991.011 ± 0.19	986.186 ± 0.2	981.346 ± 0.2	976.483 ± 0.21	971.589 ± 0.21	966.679 ± 0.22
x2 = 0.4498	976.171 ± 0.22	971.436 ± 0.22	966.685 ± 0.23	961.906 ± 0.24	957.097 ± 0.24	952.274 ± 0.25
x2 = 0.5	961.565 ± 0.25	956.92 ± 0.25	952.254 ± 0.26	947.565 ± 0.27	942.839 ± 0.27	938.086 ± 0.28
x2 = 0.5497	947.132 ± 0.28	942.578 ± 0.28	938.003 ± 0.29	933.402 ± 0.29	928.768 ± 0.3	924.119 ± 0.31
x2 = 0.6	932.622 ± 0.3	928.159 ± 0.31	923.676 ± 0.32	919.168 ± 0.32	914.627 ± 0.33	910.077 ± 0.34
x2 = 0.65	918.243 ± 0.34	913.875 ± 0.34	909.486 ± 0.35	905.07 ± 0.35	900.622 ± 0.36	896.149 ± 0.36
x2 = 0.6998	903.925 ± 0.36	899.658 ± 0.37	895.367 ± 0.38	891.05 ± 0.38	886.702 ± 0.39	882.307 ± 0.39
x2 = 0.7499	889.607 ± 0.39	885.436 ± 0.4	881.246 ± 0.41	877.028 ± 0.41	872.777 ± 0.42	868.496 ± 0.42
x2 = 0.8001	875.288 ± 0.42	871.223 ± 0.43	867.134 ± 0.43	863.017 ± 0.44	858.866 ± 0.45	854.684 ± 0.45
x2 = 0.8496	861.143 ± 0.45	857.181 ± 0.46	853.196 ± 0.46	849.186 ± 0.47	845.143 ± 0.47	841.079 ± 0.48
x2 = 0.9002	846.722 ± 0.48	842.865 ± 0.49	838.986 ± 0.49	835.082 ± 0.5	831.149 ± 0.5	827.194 ± 0.51
x2 = 0.95	832.515 ± 0.51	828.762 ± 0.52	824.99 ± 0.52	821.195 ± 0.53	817.369 ± 0.53	813.521 ± 0.54
